Measurements published in patent publication US12448655B2, “Antibiotic susceptibility of microorganisms and related methods and systems” (CALIFORNIA INSTITUTE OF TECHNOLOGY, priority 2017, dated 2025).

Key:
Neisseria gonorrhoeae = assay: AST by inaccessible DNA, 2 incubation steps (media; TRIS pH 8.5 enhancing buffer), qPCR (Example 3); assay type: cell-based; settings: 30 min ABX exposure then 20 min TRIS pH 8.5 ± 1% Triton X-100
Description: Antibiotic susceptibility test was performed with methods herein described comprising 2 sequential incubation steps, and in particular • a primary incubation in which a sample is contacted with media, antibiotic (or water in untreated sample), and a nuclease (such as DNaseI), and optionally an enhancer (such as 1% Triton X-100); and • a secondary incubation in which a cell suspension from primary incubation is contacted with enhancers such as 50 mM TRIS buffer at pH 8.5 and/or 1% Triton X-100, possibly using dilution of the cell suspension from the antibiotic exposure by 90-95% (such as 50 μL into 450 μL, 25 μL into 475 μL) removing most antibiotic, culture media, and other components from the primary incubation for the enhancer condition.
The samples were mixed before transferring 25 μL or 50 μL of the sample to the prepared secondary incubation (enhancer) tubes. The charts in step 1 were followed to add the appropriate volume of cells to each tube. Mix the tubes and proceed to step 9 immediately
Extraction was performed following the “DEB Extraction” description in the general methods using Eppendorf tubes. […]
Detection of DNA was performed following the “qPCR” description in the general methods. Quantify all DEB-extracted DNA using the Primer mix=(10 μM forward and reverse) targeting N. gonorrhoeae porA gene. […]

Ng isolates = assay: nuc-aAST time-course without enhancing step (Example 32); assay type: cell-based, Neisseria gonorrhoeae; settings: two PEN-S and two PEN-R Ng isolates; DNase I present; no enhancing step
Description: nuc-aAST time-course without enhancing step. Working cultures of Ng isolates were prepared as described in “Ng culture preparation.” Incubation at 37° C. was performed in 100 μL reaction volumes in PCR tube strips on a BioRad C1000 Thermal Cycler. Treated samples consisted of 77.5 μL MHB, 2.5 μL NaHCO3 (200 mM), 5 μL DNase I (2 U/μL), 5 μL PEN (20 μg/mL), and 10 μL working Ng isolate culture. PEN was replaced with NF—H2O in control samples. A 10 μL aliquot of each sample was extracted at 15, 30, 45, 60, 90, and 120 min and diluted 10× in QuickExtract DNA Extraction Solution (Lucigen, Middleton, WI, USA), then heated for 6 min at 65° C. followed by 4 min at 98° C. on a BioRad C1000 Thermal Cycler. All sample handling following antibiotic exposure was performed using a multichannel pipette; qPCR and calculation of % accessibility were performed as described above.
β-lactams should primarily affect peptidoglycan, and should not have a major impact on the outer membrane, which serves as a structural element in Gram-negative bacteria. Therefore, it is expected the primary mechanism behind any increase in accessibility to be cell lysis as a result of exposure to β-lactams, leading to release of genomic DNA to the extracellular environment containing DNase. […]

Substance: penicillin
- fold change (1/FC) of DNA between 30 and 50 minute measurements (Neisseria gonorrhoeae; resistant isolate (ng_44)): approximately 1.5
- fold change (1/FC) of DNA between 30 and 50 minute measurements (Neisseria gonorrhoeae; susceptible-treated samples (ng_17)): > 5
- exposure time at which percentage accessibility differed significantly between susceptible and resistant isolates (Ng isolates): 90 min
